Entries after “also recorded” stand apart in the source; their conditions may differ. Where a name gives a salt, the structure may show the parent alone. Read-outs that look alike come from different tables or passages of the source.
Tests used:
[1] = tested on: cidABC and lrgAB transcription; type: cell-based, S. aureus
[2] = tested on: cidC-encoded pyruvate oxidase; type: biochemical, S. aureus
S. aureus UAMS-1 = type: cell-based
[3] = tested on: S. aureus KB1050 (cidA mutant); type: cell-based
8325-4 strain [4] = type: cell-based
SH1000 strain [5] = type: cell-based
SH1000 strain [6] = type: cell-based; remark: listed apart in the source
8325-4 strain [7] = tested on: 8325-4 strain

Compound: Cl [HCl]
- cidABC and lrgAB expression ([1]; pH 5): elevated the expression of cidABC relative to growth in neutral media

Compound: CC(=O)[O-].[Na+] [Na-acetate, sodium acetate]
- cidABC and lrgAB expression ([1]; pH 4.5): dramatically increased
- cidABC and lrgAB expression ([1]; pH 6.5): undetectable

Compound: [Cl-].[Na+] [NaCl, sodium chloride]
- cidABC and lrgAB expression ([1]; pH 4.5): not detected at any of the pH values tested

Compound: CC(=O)O [acetic acid]
- alsSD expression (alsSD transcription): dramatically increased expression of alsSD at all time points tested
- cidABC expression [1]: dramatically increased expression of cidABC
- cidABC and lrgAB expression ([1]; pH 5): pronounced positive effect on both cidABC and lrgAB expression

Compound: OCC(O)CO [glycerol]
- pyruvate oxidase activity with carbon source added instead of sodium pyruvate [2]: the only one that possessed activity was the phosphoenol pyruvate

Compound: C=C(OP(=O)(O)O)C(=O)O [phosphoenol pyruvate]
- pyruvate oxidase activity with carbon source added instead of sodium pyruvate [2]: approximately half of what was seen with sodium pyruvate

Compound: CC(=O)[O-].[K+] [potassium acetate]
- pyruvate oxidase activity with carbon source added instead of sodium pyruvate [2]: the only one that possessed activity was the phosphoenol pyruvate

Compound: CO[C@H]1/C=C/O[C@@]2(C)Oc3c(C)c(O)c4c(O)c(c(/C=N/N5CCN(C)CC5)c(O)c4c3C2=O)NC(=O)/C(C)=C\C=C\[C@H](C)[C@H](O)[C@@H](C)[C@@H](O)[C@@H](C)[C@H](OC(C)=O)[C@@H]1C [rifampin]
- decrease in viable cell counts (S. aureus UAMS-1): three log decrease in viable cell counts; also recorded: just over one log decrease
- rifampin sensitivity relative to UAMS-1 [3]: decreased rifampin sensitivity relative to UAMS-1
- viable cell counts compared to UAMS-1 after incubation with rifampin [3]: greater than one log unit higher viable cell counts
- loss of viable cell counts (8325-4 strain [4]): lose two log units of viable cell counts
- loss of viability (SH1000 strain [5]): two log loss of viability
- loss of viable cell counts (SH1000 strain [6]): lose two log units of viable cell counts
- difference in viable cell counts determined using the two methods (8325-4 strain [7]): greater than 1,000 fold
- viability (8325-4 strain [7]; Staphylococcus aureus): ~100%

Compound: CC(O)C(=O)[O-].[Na+] (stereo not shown) [sodium lactate]
- pyruvate oxidase activity with carbon source added instead of sodium pyruvate [2]: the only one that possessed activity was the phosphoenol pyruvate
